{
  "source": "patent US8916577B2",
  "about": "“Tricyclic derivatives, process for their preparation and their use as kinase inhibitors” (Nerviano Medical Sciences S.R.L., priority 2011, dated 2014)",
  "note": "pIC50: −log10 of the molar value. Where a name gives a salt, the structure may show the parent alone.",
  "data": [
    {"biological_target": "MPS1 (Homo sapiens (Human), UniProt P33981)", "sequence (P33981 2-857)": "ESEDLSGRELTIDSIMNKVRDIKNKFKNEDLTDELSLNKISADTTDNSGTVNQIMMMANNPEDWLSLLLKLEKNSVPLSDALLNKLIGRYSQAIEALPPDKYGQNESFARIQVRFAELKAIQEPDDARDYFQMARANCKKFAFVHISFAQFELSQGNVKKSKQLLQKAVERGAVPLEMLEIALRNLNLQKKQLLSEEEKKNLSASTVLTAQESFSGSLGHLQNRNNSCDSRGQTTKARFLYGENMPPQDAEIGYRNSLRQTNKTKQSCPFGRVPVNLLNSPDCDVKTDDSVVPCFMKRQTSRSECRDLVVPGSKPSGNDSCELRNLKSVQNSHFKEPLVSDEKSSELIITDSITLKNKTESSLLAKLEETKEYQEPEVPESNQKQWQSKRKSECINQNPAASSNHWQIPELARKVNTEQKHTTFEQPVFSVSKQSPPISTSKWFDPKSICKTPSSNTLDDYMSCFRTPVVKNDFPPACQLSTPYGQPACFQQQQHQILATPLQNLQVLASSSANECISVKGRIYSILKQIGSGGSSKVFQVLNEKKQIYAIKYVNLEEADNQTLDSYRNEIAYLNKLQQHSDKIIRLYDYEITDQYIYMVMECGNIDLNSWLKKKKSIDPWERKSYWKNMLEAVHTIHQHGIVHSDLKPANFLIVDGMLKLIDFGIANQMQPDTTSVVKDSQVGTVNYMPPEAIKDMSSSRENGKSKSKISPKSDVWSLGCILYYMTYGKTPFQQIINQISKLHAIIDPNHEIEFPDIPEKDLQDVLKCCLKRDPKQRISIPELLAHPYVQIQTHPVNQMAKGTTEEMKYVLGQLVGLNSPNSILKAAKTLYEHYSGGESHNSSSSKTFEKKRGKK", "test": "Biochemical assay for inhibitors of MPS1 kinase activity (33P-ATP trans-phosphorylation, Dowex)", "settings": "5 nM MPS1, 15 microM ATP, P38-β-tide 200 microM", "description": "Cloning, Expression and Purification of Recombinant MPS1 Full Length Protein.\nMPS1 full length (corresponding to residues 2-857 of the full length sequence, see Swiss-Prot accession number P33981) was PCR amplified from the full-length human MPS1 gene present in house as clone pGEX4t_MPS1.\nBaculoviruses were generated by cotransfecting Sf9 insect cells with the expression vector and the viral DNA using the BaculoGold® transfection kit (Pharmingen). Viral supernatant was recovered after 5 days and subjected to 3 rounds of amplification to increase viral titer. Recombinant protein was produced by infecting High5 insect cells. After 72 hours of infection at 21° C., cells were recovered, pelletted and freezed at −80° C. For purification of recombinant protein, pellet was thawed, resuspended in lysis buffer (PBS, NaCl 150 mM, Glycerol 10%, CHAPS 0.1%, DTT 20 mM, protease and phosphatase inhibitors) and lysed by Gaulin. Lysate was cleared by centrifugation and loaded on a GST affinity column. After extensive wash, recombinant protein was cleaved by a specific protease and eluted by incubation.\nTo get a fully activated enzyme, the protein was then subjected to auto-phosphorylation in presence of ATP 1 mM at 25° C. for 2 hours in kinase buffer (Hepes pH7.5 50 mM, MgCl2 2.5 mM, MnCl2 1 mM, DTT 1 mM, phosphatase inhibitors); ATP was then removed whit a desalting column.\nBiochemical Assay for Inhibitors of MPS1 Kinase Activity\nThe inhibitory activity of putative kinase inhibitors and the potency of selected compounds were determined using a trans-phosphorylation assay.\nSpecific peptide or protein substrates are trans-phosphorylated by their specific ser-thr or tyr kinase in the presence of ATP traced with ^33P-γ-ATP, and in the presence of their own optimal buffer and cofactors.\nAt the end of the phosphorylation reaction, more than 98% unlabeled ATP and radioactive ATP is captured by an excess of the ion exchange dowex resin; the resin then settles down to the bottom of the reaction plate by gravity.\nSupernatant is subsequently withdrawn and transferred into a counting plate, then evaluated by P-counting.\nThe buffer for MPS1 assay was composed of HEPES 50 mM, at pH 7.5, with 2.5 mM MgCl2, 1 mM MnCl2, 1 mM DTT, 3 microM Na3VO4, 2 mM P-glycerophosphate and 0.2 mg/mL BSA.\nThe assay was run with a final concentration MPS1 of 5 nM, in the presence of 15 microM ATP and 1.5 nM ^33P-γ-ATP; the substrate was P38-β-tide, used at 200 microM.\nThe test mix consisted of:\n1) 3× Enzyme mix (done in Kinase Buffer 3×), 5 microL/well\n2) 3× substrate and ATP mix (done in ddH2O), together with ^33P-γ-ATP, 5 microL/well\n3) 3× test compounds (diluted into ddH2O—3% DMSO)—5 microL/well\na) for percent inhibition studies (HTS), individual dilution plates at 1 mM are diluted at a 3× concentration (30 microM) in ddH2O (3% DMSO=final concentration) using a Beckman NX automated pipetting platform. The same instrument is used for distributing the diluted mother plates into the test plates. b) for IC50 determination (KSS platform), 100 μl of each compound at 1 mM in 100% DMSO are transferred from the original plate into the first column of another 96 well plate (A1 to G1); well H1 is left empty for the internal standard inhibitor, usually staurosporine.\nAn automated station for serial dilutions (Biomek FX, Beckman) is used for producing 1:3 dilutions in 100% DMSO, from line A1 to A10, and for all the seven compounds in the column. Moreover, 4-5 copies of daughter plates are prepared by reformatting 5 microL of this first set of 100% DMSO dilution plates into 384 deep well-plates: one copy of the daughter plates with the serial dilutions of test compounds will be thaw the day of the experiments, reconstituted at a 3× concentration with water and used in the IC50 determination assays. In a standard experiment, the highest concentration (3×) of all compounds is 30 microM, while the lowest one is 1.5 nM. […]", "values": [
      {"smiles": "COc1cc(Br)ccc1Nc1ncc2c(n1)-c1c(c(C(N)=O)nn1C)CCC2", "note": "[Compound 1, 9-[(4-bromo-2-methoxyphenyl)amino]-1-methyl-1,4,5,6-tetrahydropyrazolo[4′,3′:6,7]cyclohepta[1,2-d]pyrimidine-3-carboxamide]", "pIC50": 6.38},
      {"smiles": "CCc1cccc(CC)c1NC(=O)c1nn(C)c2c1CCCc1cnc(Nc3ccc(N4CCN(C)CC4)cc3OC)nc1-2", "note": "[Compound 4, N-(2,6-diethylphenyl)-9-{[2-methoxy-4-(4-methylpiperazin-1-yl)phenyl]amino}-1-methyl-1,4,5,6-tetrahydropyrazolo[4′,3′:6,7]cyclohepta[1,2-d]pyrimidine-3-carboxamide]", "pIC50": 6.74},
      {"smiles": "COc1cc(N2CCN(C)CC2)ccc1Nc1ncc2c(n1)-c1c(c(C(=O)Nc3ccccc3)nn1C)CCC2", "note": "[Compound 8, 9-{[2-methoxy-4-(4-methylpiperazin-1-yl)phenyl]amino}-1-methyl-N-phenyl-1,4,5,6-tetrahydropyrazolo[4′,3′:6,7]cyclohepta[1,2-d]pyrimidine-3-carboxamide]", "pIC50": 6.45},
      {"smiles": "CCc1cccc(C)c1NC(=O)c1nn(C)c2c1CCCc1cnc(Nc3ccc(N4CCN(C)CC4)cc3OC)nc1-2", "note": "[Compound 27, N-(2-ethyl-6-methylphenyl)-9-{[2-methoxy-4-(4-methylpiperazin-1-yl)phenyl]amino}-1-methyl-1,4,5,6-tetrahydropyrazolo[4′,3′:6,7]cyclohepta[1,2-d]pyrimidine-3-carboxamide]", "pIC50": 6.72},
      {"smiles": "COc1cc(N2CCN(C)CC2)ccc1Nc1ncc2c(n1)-c1c(c(C(=O)NC3CCCCC3)nn1C)CCC2", "note": "[Compound 28, N-cyclohexyl-9-{[2-methoxy-4-(4-methylpiperazin-1-yl)phenyl]amino}-1-methyl-1,4,5,6-tetrahydropyrazolo[4′,3′:6,7]cyclohepta[1,2-d]pyrimidine-3-carboxamide]", "pIC50": 6.60},
      {"smiles": "CNC(=O)c1nn(C)c2c1CCCc1cnc(Nc3ccc(Br)cc3OC)nc1-2", "note": "[Compound 32, 9-[(4-bromo-2-methoxyphenyl)amino]-N,1-dimethyl-1,4,5,6-tetrahydropyrazolo[4′,3′:6,7]cyclohepta[1,2-d]pyrimidine-3-carboxamide]", "pIC50": 6.56},
      {"smiles": "CCc1cccc(CC)c1NC(=O)c1nn(C)c2c1CCCc1cnc(Nc3ccc(C(=O)NC4CCN(C)CC4)cc3OC)nc1-2", "note": "[Compound 35, N-(2,6-diethylphenyl)-9-({2-methoxy-4-[(1-methylpiperidin-4-yl)carbamoyl]phenyl}amino)-1-methyl-1,4,5,6-tetrahydropyrazolo[4′,3′:6,7]cyclohepta[1,2-d]pyrimidine-3-carboxamide]", "pIC50": 7.18},
      {"smiles": "CCc1cccc(CC)c1NC(=O)c1nn(C)c2c1CCCc1cnc(Nc3ccc(C(=O)N4CCCN(C)CC4)cc3OC(F)(F)F)nc1-2", "note": "[Compound 43, N-(2,6-diethylphenyl)-1-methyl-9-({4-[(4-methyl-1,4-diazepan-1-yl)carbonyl]-2-(trifluoromethoxy)phenyl}amino)-1,4,5,6-tetrahydropyrazolo[4′,3′:6,7]cyclohepta[1,2-d]pyrimidine-3-carboxamide]", "pIC50": 6.70},
      {"smiles": "CCc1cccc(CC)c1NC(=O)c1nn(CC(F)(F)F)c2c1CCCc1cnc(Nc3ccc(N4CCN(C)CC4)cc3OC)nc1-2", "note": "[Compound 56, N-(2,6-diethylphenyl)-9-{[2-methoxy-4-(4-methylpiperazin-1-yl)phenyl]amino}-1-(2,2,2-trifluoroethyl)-1,4,5,6-tetrahydropyrazolo[4′,3′:6,7]cyclohepta[1,2-d]pyrimidine-3-carboxamide]", "pIC50": 6.06},
      {"smiles": "CCc1cccc(CC)c1NC(=O)c1nn(CCO)c2c1CCCc1cnc(Nc3ccc(N4CCC(N(C)C)CC4)cc3OC)nc1-2", "note": "[Compound 71, N-(2,6-diethylphenyl)-9-({4-[4-(dimethylamino)piperidin-1-yl]-2-methoxyphenyl}amino)-1-(2-hydroxyethyl)-1,4,5,6-tetrahydropyrazolo[4′,3′:6,7]cyclohepta[1,2-d]pyrimidine-3-carboxamide trifluoroacetate]", "pIC50": 6.76},
      {"smiles": "CCc1cccc(CC)c1NC(=O)c1c2c(nn1C)-c1nc(Nc3ccc(N4CCN(C)CC4)cc3OC)ncc1CCC2", "note": "[Compound 97, N-(2,6-diethylphenyl)-9-{[2-methoxy-4-(4-methylpiperazin-1-yl)phenyl]amino}-2-methyl-2,4,5,6-tetrahydropyrazolo[4′,3′:6,7]cyclohepta[1,2-d]pyrimidine-3-carboxamide]", "pIC50": 6.07},
      {"smiles": "CCc1cccc(CC)c1NC(=O)c1noc2c1CCCc1cnc(Nc3ccc(N4CCN(C)CC4)cc3OC)nc1-2", "note": "[Compound 99, N-(2,6-diethylphenyl)-9-{[2-methoxy-4-(4-methylpiperazin-1-yl)phenyl]amino}-5,6-dihydro-4H-isoxazolo[4′,5′:6,7]cyclohepta[1,2-d]pyrimidine-3-carboxamide]", "pIC50": 6.87},
      {"smiles": "CCc1cccc(CC)c1NC(=O)c1onc2c1CCCc1cnc(Nc3ccc(N4CCN(C)CC4)cc3OC)nc1-2", "note": "[Compound 101, N-(2,6-diethylphenyl)-9-{[2-methoxy-4-(4-methylpiperazin-1-yl)phenyl]amino}-5,6-dihydro-4H-isoxazolo[4′,3′:6,7]cyclohepta[1,2-d]pyrimidine-3-carboxamide]", "pIC50": 6.51}
    ]}
  ]
}
